The values that follow are results of earlier work, collected in PubChem BioAssay AID1259409 (Chemical Carcinogenesis Research Information System (CCRIS), 2018).

This series concerns rodent chemically induced tumor inhibition, incidence and multiplicity. Nature of the series: CCRIS tumor inhibitor studies. Particulars: Carcinogen: N-ETHYL-N-NITROSOUREA, 759-73-9, Dose [Inhibitor]: 0, Route [Inhibitor]: ORAL, Species: RAT, Strain/Sex: ALBINO/MALE, FEMALE, Dose [Carcinogen]: 75 MG/KG BW ADMINISTERED INTRAPERITONEALLY TO MOTHERS 21 D POST CONCEPTION, Promoter: NONE USED.

The structures appear in SMILES notation.

Regarding `NCCCCCC(=O)O`, the “tumour outcome (control, treated, inhibition, significance)” value by setting is: (1000 MG/L IN DRINKING WATER FOR 12 MO ADMINISTERED TO CARCINOGEN-TREATED MOTHERS (STUDY DURATION: 12 MO), Target Tissue: Type of Lesion: PERIPHERAL NERVES: TUMOR) 24/63 (38%), 7/33 (21%), 45%, not significant; (1000 MG/L IN DRINKING WATER FOR 12 MO ADMINISTERED TO OFFSPRING OF CARCINOGEN-TREATED MOTHERS (STUDY DURATION: 12 MO), Target Tissue: Type of Lesion: BRAIN: TUMOR) 53/63 (84%), 21/33 (64%), 24%, p<0.05; (1000 MG/L IN DRINKING WATER FOR 12 MO ADMINISTERED TO OFFSPRING OF CARCINOGEN-TREATED MOTHERS (STUDY DURATION: 12 MO), Target Tissue: Type of Lesion: KIDNEY: TUMOR) 23/63 (37%), 7/33 (21%), 43%, not significant; (1000 MG/L IN DRINKING WATER FOR 12 MO ADMINISTERED TO OFFSPRING OF CARCINOGEN-TREATED MOTHERS (STUDY DURATION: 12 MO), Target Tissue: Type of Lesion: SPINAL CHORD: TUMOR) 17/63 (27%), 15/33 (45%), -67%, not significant.
